# In patent US20140066434A1, “Methods and Compositions for Treating Parkinson's Disease” (ARIAD PHARMACEUTICALS, INC., priority 2011, published 2014):
# Assay: Phase 1 clinical trial, safety
compound,measurement,setting,value
"Cc1ccc(C(=O)Nc2ccc(CN3CCN(C)CC3)c(C(F)(F)F)c2)cc1C#Cc1cnc2cccnn12 [ponatinib, 3-(Imidazo[1,2-b]pyridazin-3-ylethynyl)-4-methyl-N-(4-((4-methylpiperazin-1-yl)methyl)-3-(trifluoromethyl)phenyl)benzamide]",DLTs,45 mg cohort,a reversible rash was seen with one patient
same,DLTs,60 mg cohort,four patients developed reversible pancreatic related DLT (pancreatitis)
same,DLTs,2 to 30 mg cohorts,No DLTs
same,drug-related adverse events of any grade: anemia,"phase 1, all cohorts",12%
same,drug-related adverse events of any grade: lipase increase,"phase 1, all cohorts",12%
same,drug-related adverse events of any grade: nausea,"phase 1, all cohorts",12%
same,drug-related adverse events of any grade: rash,"phase 1, all cohorts",12%
same,drug-related adverse events of any grade: thrombocytopenia,"phase 1, all cohorts",25%
same,maximum tolerated dose (MTD),"phase 1, mono-hydrochloride salt",45 mg
